The source of these data is ChEMBL document CHEMBL1133265 (Bioorg Med Chem Lett, 2000).

The target of experiment [1] is Norepinephrine transporter (Rattus norvegicus, UniProt Q9WTR4). The experiment can be described thus: Compound has been evaluated for its affinity towards Norepinephrine transporter by displacing the radio isotope [3H]nisoxetine from rat forebrain.
Experiment [2] addresses Sodium-dependent dopamine transporter (Rattus norvegicus, UniProt P23977). Kind of experiment: Displacement of [3H]GBR-12935 from rat forebrain Dopamine transporter.
For experiment [3], the target named is Sodium-dependent serotonin transporter (Rattus norvegicus, UniProt P31652). The experiment can be described thus: Affinity for Serotonin transporter by displacing [3H]paroxetine from rat forebrain.
Sodium-dependent serotonin transporter, sequence (P31652 whole entry): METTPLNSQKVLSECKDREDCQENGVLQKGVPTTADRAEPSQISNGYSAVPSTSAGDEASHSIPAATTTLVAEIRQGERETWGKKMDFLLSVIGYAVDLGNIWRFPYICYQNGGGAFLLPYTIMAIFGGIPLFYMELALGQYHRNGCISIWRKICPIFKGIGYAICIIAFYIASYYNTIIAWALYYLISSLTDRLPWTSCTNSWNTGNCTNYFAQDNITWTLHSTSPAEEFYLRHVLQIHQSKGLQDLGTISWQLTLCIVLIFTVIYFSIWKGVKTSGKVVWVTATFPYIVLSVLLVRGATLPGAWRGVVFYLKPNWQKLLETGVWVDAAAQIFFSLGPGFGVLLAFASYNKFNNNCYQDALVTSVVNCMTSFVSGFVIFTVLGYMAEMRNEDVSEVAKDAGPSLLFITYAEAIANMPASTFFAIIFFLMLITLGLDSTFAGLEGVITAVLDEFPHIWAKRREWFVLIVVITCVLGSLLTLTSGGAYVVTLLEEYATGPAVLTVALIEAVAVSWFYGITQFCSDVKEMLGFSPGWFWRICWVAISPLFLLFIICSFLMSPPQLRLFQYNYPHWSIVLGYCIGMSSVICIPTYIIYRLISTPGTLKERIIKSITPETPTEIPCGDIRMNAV

Each structure is given as a SMILES string. Bounds are passed on as bounds.

Norepinephrine transporter, sequence (Q9WTR4 whole entry): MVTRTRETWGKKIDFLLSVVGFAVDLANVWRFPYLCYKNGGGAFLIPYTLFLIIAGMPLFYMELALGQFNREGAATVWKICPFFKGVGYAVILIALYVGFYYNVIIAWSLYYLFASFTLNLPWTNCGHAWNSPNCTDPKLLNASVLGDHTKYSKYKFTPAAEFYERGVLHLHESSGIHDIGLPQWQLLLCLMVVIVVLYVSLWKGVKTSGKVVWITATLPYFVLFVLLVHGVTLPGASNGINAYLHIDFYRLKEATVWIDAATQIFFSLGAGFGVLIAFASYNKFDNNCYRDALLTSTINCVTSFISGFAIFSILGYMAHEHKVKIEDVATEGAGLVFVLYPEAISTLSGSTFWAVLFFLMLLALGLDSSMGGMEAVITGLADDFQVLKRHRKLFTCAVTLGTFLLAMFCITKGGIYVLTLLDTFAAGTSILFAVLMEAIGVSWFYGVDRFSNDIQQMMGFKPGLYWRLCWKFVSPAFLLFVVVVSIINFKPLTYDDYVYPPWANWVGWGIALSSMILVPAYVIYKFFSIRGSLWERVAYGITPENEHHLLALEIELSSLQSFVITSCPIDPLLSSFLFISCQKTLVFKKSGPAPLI
Sodium-dependent dopamine transporter, sequence (P23977 whole entry): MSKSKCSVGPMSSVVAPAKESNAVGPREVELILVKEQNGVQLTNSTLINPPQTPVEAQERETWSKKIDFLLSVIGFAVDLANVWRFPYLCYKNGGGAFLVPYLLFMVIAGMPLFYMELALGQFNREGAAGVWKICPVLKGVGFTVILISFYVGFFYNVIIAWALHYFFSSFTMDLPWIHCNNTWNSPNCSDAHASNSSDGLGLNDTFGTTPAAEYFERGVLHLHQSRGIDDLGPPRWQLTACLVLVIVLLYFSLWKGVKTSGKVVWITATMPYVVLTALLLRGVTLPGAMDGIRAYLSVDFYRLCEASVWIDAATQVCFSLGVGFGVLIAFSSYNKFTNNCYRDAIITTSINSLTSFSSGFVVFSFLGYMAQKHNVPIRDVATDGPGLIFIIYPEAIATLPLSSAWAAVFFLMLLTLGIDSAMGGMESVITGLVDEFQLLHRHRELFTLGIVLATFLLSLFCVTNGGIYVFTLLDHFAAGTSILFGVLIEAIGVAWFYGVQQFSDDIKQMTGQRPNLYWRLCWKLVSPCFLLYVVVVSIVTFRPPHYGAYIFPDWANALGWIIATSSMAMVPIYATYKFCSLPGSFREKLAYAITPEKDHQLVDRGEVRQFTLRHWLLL

In experiment [1], `COC(=O)C1C(c2ccc(-c3ccc(OC)cc3)cc2)CC2CCC1N2C` (centres undefined) showed an inhibition constant (Ki) of 352 nM.

`COC(=O)C1C(c2ccc(-c3ccccc3OC)cc2)CC2CCC1N2C` (centres undefined) gave a Ki in experiment [1] of 10000 nM.

Molecule `COC(=O)C1C(c2ccc(-c3ccc([N+](=O)[O-])cc3)cc2)CC2CCC1N2C` (centres undefined) displayed a Ki in experiment [1] of 370 nM.

In experiment [1], `COC(=O)C1C(c2ccc(-c3cccc([N+](=O)[O-])c3)cc2)CC2CCC1N2C` (centres undefined) registered a Ki of 963 nM.

As for `COC(=O)[C@@H]1C2CC[C@H](C[C@@H]1c1ccc(I)cc1)N2C`, the inhibitory constant (Ki) amounted to 0.96 nM in experiment [2], 2.8 nM in experiment [1] and 0.46 nM in experiment [3].

`COC(=O)C1C(c2ccc(-c3ccccc3[N+](=O)[O-])cc2)CC2CCC1N2C` (centres undefined): the inhibition constant (Ki) in experiment [2], in experiment [1] and in experiment [3] was greater than 3000 nM throughout.

`COC(=O)C1C(c2ccc(-c3ccccc3C(C)=O)cc2)CC2CCC1N2C` (centres undefined): the Ki in experiment [1] is greater than 20000 nM.

In experiment [1], `COC(=O)C1C(c2ccc(-c3ccc(C(C)=O)cc3)cc2)CC2CCC1N2C` (centres undefined) showed a Ki of 754 nM.

As for `COC(=O)C1C(c2ccc(-c3cccc(OC)c3)cc2)CC2CCC1N2C` (centres undefined), the Ki in experiment [1] was greater than 3000 nM.

In the case of `COC(=O)C1C(c2ccc(-c3cccc(C(C)=O)c3)cc2)CC2CCC1N2C` (centres undefined), the Ki in experiment [1] was greater than 50000 nM.
